Test results as given in patent US5338747A, “Benzoisothiazolinone-1-dioxide derivatives as elastase inhibitors” (Chesebrough-Pond's USA Co., Division of Conopco, Inc., priority 1990, dated 1994).

Experiments:
[1] = molecular target: T1, Human leucocytic elastase (Homo sapiens, UniProt P08246); experiment: Inhibition of human leucocytic elastase (succinyltrialanine p-nitroanilide substrate); format: biochemical; conditions: elastase 1 μg/ml, pre-incubated 15 min; 1% acetone; 410 nm
T1 sequence (P08246 30-247 limits assumed): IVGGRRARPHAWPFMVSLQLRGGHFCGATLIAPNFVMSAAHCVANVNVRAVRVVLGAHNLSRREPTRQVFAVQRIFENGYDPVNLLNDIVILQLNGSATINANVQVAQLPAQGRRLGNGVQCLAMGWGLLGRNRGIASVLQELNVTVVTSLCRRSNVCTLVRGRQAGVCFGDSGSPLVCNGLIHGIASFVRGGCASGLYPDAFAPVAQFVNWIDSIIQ
Experimental: (§1) The inhibition test was carried out by using succinyltrialanine p-nitroanilide as a synthetic substrate. Human leucocytic elastase, used at a concentration of 1 μg/ml, was first pre-incubated for 15 min with the compounds of the invention, used at a concentration of 0.5, 5, 10, 25 and 50 μg/ml. These compounds were added in the form of a solution in acetone, the final acetone concentration of the reaction mixture being 1%.
The degree of hydrolysis of the substrate was determined by measuring the amount of p-nitroaniline released, using a Philips PO 8700 spectrophotometer at 410 nm. The 50% inhibitory concentration (IC50) in mole/liter was then determined by a graphical method, using the inhibition values obtained with the different concentrations of the substrate and the inhibitor. […] It can thus be seen that the inhibitory action of these compounds increases with the number of carbon atoms in the R^2 group on going from C9 to C17.

[2] = molecular target: T1, Human leucocytic elastase; experiment: Serine protease inhibition, E/IC50: human leucocytic elastase; format: biochemical; conditions: human leucocytic elastase vs thrombin
Experimental: as §1
The degree of hydrolysis of the substrate was determined by measuring the amount of p-nitroaniline released, using a Philips PO 8700 spectrophotometer at 410 nm. […]
The inhibition exerted by the following two compounds on serine-containing proteases other than human Teucocytic elastase was determined in this Example: […]
The appropriate substrate was then added to each enzyme, and its hydrolysis was monitored with a Philips 8700 spectrophotometer at 410 nm by measuring the amount of p-nitroaniline appearing in the medium. […]
(§2) Inhibition of human leucocytic elastase was also determined, as in Example 12.
(§3) To be able to compare the inhibitory power of the compounds tested on the various enzymes used, the E/IC50 value was calculated, where E is the concentration of the enzyme in the reaction mixture (also expressed in mole/l ). […]

Pig pancreatic elastase = Pig pancreatic elastase (Sus scrofa, UniProt P00772); experiment: Serine protease inhibition, E/IC50: pig pancreatic elastase; format: biochemical; conditions: pig pancreatic elastase vs thrombin
Experimental: (§4) The inhibition exerted by the following two compounds on serine-containing proteases other than human Teucocytic elastase was determined in this Example:
(§5) More specifically, the activity of a) pig pancreatic elastase, b) trypsin, c) thrombin and d) plasmin was determined in the presence of these inhibitors and of the synthetic substrates: a) succinyltrialanine p-nitroanilide, b) N-benzoyl-DL-arginine p-nitroanilide, c) N-p-tosyl-gly-pro-arg p-nitroanilide and d) N-p-tosyl-gly-pro-lys p-nitroanilide, respectively.
(§6) Each enzyme was first incubated for 15 min with 0-50 μg/ml of compound B or P mentioned above, which had been dissolved in acetone as in the test with human leucocytic elastase, the final concentration of this solvent in the reaction mixture being 1%.
(§7) The appropriate substrate was then added to each enzyme, and its hydrolysis was monitored with a Philips 8700 spectrophotometer at 410 nm by measuring the amount of p-nitroaniline appearing in the medium.
(§8) The results were used to plot the inhibition of the enzymatic activity against the amount of inhibitor present in the medium. […]
as §3

Trypsin = molecular target: T2, Trypsin (Bos taurus, UniProt P00760); experiment: Serine protease inhibition, E/IC50: trypsin; format: biochemical
T2 sequence (P00760 24-246): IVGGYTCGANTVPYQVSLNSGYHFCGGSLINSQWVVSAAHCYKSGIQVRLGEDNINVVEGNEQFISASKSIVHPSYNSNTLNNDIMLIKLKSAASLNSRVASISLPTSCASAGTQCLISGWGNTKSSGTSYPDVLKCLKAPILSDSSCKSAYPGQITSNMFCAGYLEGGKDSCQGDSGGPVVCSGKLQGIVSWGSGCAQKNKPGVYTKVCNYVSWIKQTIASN
Experimental: as §4, §5, §6, §7
The results were used to plot the inhibition of the enzymatic activity against the amount of inhibitor present in the medium. These curves were then used to find the median inhibitory concentration (IC50) in mole/l, which inhibits 50% of the enzymatic activity.
To be able to compare the inhibitory power of the compounds tested on the various enzymes used, the E/IC50 value was calculated, where E is the concentration of the enzyme in the reaction mixture (also expressed in mole/l ). The higher the value of this quotient, the stronger the inhibitory activity, and therefore the lower the number of moles of the inhibitor that are needed to obtain a 50% inhibition for the same number of moles of the enzyme.

serine proteases = experiment: Comparison of inhibitory power over all serine proteases used (E/IC50); format: biochemical; conditions: all enzymes of Table 2
Experimental: as §4, §5, §6, §7, §8, §2, §3

[3] = molecular target: T1, Human leucocytic elastase; experiment: Direct inhibition of elastin-cleaving activity of human leucocytic elastase (first series, elastase pre-incubated with compound); format: biochemical; conditions: pH 8.4, 7 h at 37° C.
Experimental: 1) Inhibitory action […] Tritiated insoluble elastin extracted from the nuchal ligament was then added in a concentration of 75 μg/ml, corresponding to a radioactivity level of 2.2×10^6 counts per minute (cpm) per ml. The degree of the hydrolysis of elastin was calculated in all three cases after incubation with elastase for 7 h at 37° C. by determining the radioactivity in the solubilized peptides derived from the elastin.

[4] = molecular target: T1, Human leucocytic elastase; experiment: Protective action on insoluble elastin against human leucocytic elastase (second and third series, elastin pre-incubated with compound); format: biochemical; conditions: 50-100 μg/ml, elastin first incubated with compound 30 min or 10 min
Experimental: Tritiated insoluble elastin extracted from the nuchal ligament was then added in a concentration of 75 μg/ml, corresponding to a radioactivity level of 2.2×10^6 counts per minute (cpm) per ml. 2) Protective action […] 3) Third series […] The mixture was then centrifuged, the supernatant was discarded, and the residue was suspended in the buffer that contained human leucocytic elastase. The degree of the hydrolysis of elastin was calculated in all three cases after incubation with elastase for 7 h at 37° C. by determining the radioactivity in the solubilized peptides derived from the elastin.

[5] = molecular target: T1, Human leucocytic elastase; experiment: Protective action on the elastin in rabbit skin sections treated with human leucocytic elastase; conditions: 1.5 h at 37° C.
Experimental: The segments of rabbit skin were incubated for 1.5 h at 37° C. In the control experiment, they were incubated only with the buffer (100-mM tris-HCl, 0.1% of Brij 35, pH 8) under the same conditions. Thin sections of the skin specimens were then fixed for 2 min in 95% ethanol and stained for 3 h by a modified Verhoeff method, described by Godeau et al. [cf. Pathol. Biol., 32 (1984) pp. 215-6]. After a suitable contrast treatment, the surface density of the elastic fibres was determined by automatic image analysis, carried out directly on the microscope slides.

Plasmin = experiment: Serine protease inhibition, E/IC50: plasmin; format: biochemical
Experimental: as §4, §5, §6, §7, §8, §3

Pig pancreatic elastase, sequence (P00772 27-266): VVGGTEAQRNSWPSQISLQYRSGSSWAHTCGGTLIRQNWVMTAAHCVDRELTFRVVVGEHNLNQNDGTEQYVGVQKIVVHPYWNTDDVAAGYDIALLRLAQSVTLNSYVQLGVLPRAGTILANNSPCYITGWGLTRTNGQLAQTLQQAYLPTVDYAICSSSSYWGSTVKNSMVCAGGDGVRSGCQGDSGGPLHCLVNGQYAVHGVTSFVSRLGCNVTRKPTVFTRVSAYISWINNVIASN

O=C(C=Cc1ccccc1)N1C(=O)c2ccccc2S1(=O)=O [Example 8]
IC50 [1]: 90 µM

CCCCCCCCCC(=O)N1C(=O)c2ccccc2S1(=O)=O [Example 5]
IC50 [1]: 86 µM

CCCCCCCCCCCCCCCC(=O)N1C(=O)c2ccccc2S1(=O)=O [Example 3, 2-palmitoyl-benzisothiazolinone-1-dioxide]
IC50 [1]: 2.1 µM | inhibition relative to thrombin [2]: 20-40 times | inhibition relative to thrombin (Pig pancreatic elastase): 20-40 times | inhibition relative to thrombin (Trypsin; trypsin vs thrombin): 20-40 times | inhibitory power relative to butyrylbenzisothiazolinone-1-dioxide (in words) (serine proteases): better inhibitor than butyrylbenzisothiazolinone-1-dioxide, irrespective of the enzyme used

CCCCCCCCCCCCCCCCCC(=O)N1C(=O)c2ccccc2S1(=O)=O [Example 4, 2-stearoylbenzisothiazolinone-1-dioxide]
IC50 [1]: 4.7 µM

CCCCCCCCCCCC(=O)N1C(=O)c2ccccc2S1(=O)=O [Example 1, 2-lauroylbenzisothiazolinone-1-dioxide]
IC50 [1]: 11 µM | inhibition at 45 µg/mL ([3]; 45 μg/ml, elastase 1 μg/ml, tritiated insoluble elastin 75 μg/ml): 80% | IC50 ([3]; elastase 1 μg/ml incubated 10 min with compound): 75 µM | maximum inhibition (protection of insoluble elastic fibres) [4]: 50% | volume fraction V occupied by the cutaneous elastic fibres ([5]; elastase 15 μg/ml + compound 350 μg/ml, V without elastase 6.25±0.5%, with elastase alone 4.1±0.8%): 6.00±1% | inhibition at 350 µg/mL ([5]; pH 8, elastase 15 μg/ml + compound 350 μg/ml, read-out: protection from the action of elastase): 96%

O=C(CCc1ccccc1)N1C(=O)c2ccccc2S1(=O)=O [Example 9]
IC50 [1]: 48 µM

COc1ccc(C=CC(=O)N2C(=O)c3ccccc3S2(=O)=O)cc1OC [Example 7, 2-[(3,4)-dimethoxycinnamoyl]-benzisothiazolinone-1-dioxide]
IC50 [1]: 5 µM

CCCC(=O)N1C(=O)c2ccccc2S1(=O)=O [2-butyryl-benzisothiazolinone-1-dioxide]
inhibition relative to thrombin (in words) [2]: more strongly than it inhibits thrombin | inhibition relative to thrombin (in words) (Pig pancreatic elastase): more strongly than it inhibits thrombin | effect on trypsin (in words) (Trypsin; 0-50 μg/ml): activates trypsin | E/IC50 (Trypsin; E = enzyme concentration (mole/l), N-benzoyl-DL-arginine p-nitroanilide substrate): activator | effect on plasmin (in words) (Plasmin; 0-50 μg/ml): no effect on plasmin | E/IC50 (Plasmin; E = enzyme concentration (mole/l), N-p-tosyl-gly-pro-lys p-nitroanilide substrate): inactive

COc1ccc(CCCC(=O)N2C(=O)c3ccccc3S2(=O)=O)cc1 [Example 10]
IC50 [1]: 36 µM

CCCCCCCCCCCCCC(=O)N1C(=O)c2ccccc2S1(=O)=O [Example 2, 2-myristoylbenzisothiazolinone-1-dioxide]
IC50 [1]: 9.2 µM

C=CCCCCCCCCC(=O)N1C(=O)c2ccccc2S1(=O)=O [Example 6, 2-undecenoylbenzisothiazolinone-1-dioxide]
IC50 [1]: 75 µM
